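1) Cells in 96-well plates. 2) Compound, 48 h, 5 concentrations. 3) Linear interpolation between surrounding doses. 4) Unreached endpoint = highest concentration. Abbreviation: GI50, concentration required for 50% inhibition of growth.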 Activity calls are given as the source filed them. Rule as the data show it: active = GI50 up to about 1.1 µM and inactive = higher.
Columns and labels:
Assay in all cases: growth of human tumour cells (NCI), 48 h
786-0 = system: 786-0
A549 = system: A549
ACHN = system: ACHN
BT-549 = system: BT-549
COLO 205 = system: COLO 205
HCT-116 = system: HCT-116
HOP-92 = system: HOP-92
IGROV-1 = system: IGROV-1
Malme-3M = system: Malme-3M
NCI/ADR-RES = system: NCI/ADR-RES
OVCAR-8 = system: OVCAR-8
SK-MEL-2 = system: SK-MEL-2
SK-MEL-5 = system: SK-MEL-5
SK-OV-3 = system: SK-OV-3
SNB-19 = system: SNB-19
SNB-75 = system: SNB-75
UACC-62 = system: UACC-62
UO-31 = system: UO-31
MDA-N = system: MDA-N

Row | Structure (SMILES) | GI50 (786-0) | GI50 (A549) | GI50 (ACHN) | GI50 (BT-549) | GI50 (COLO 205) | GI50 (HCT-116) | GI50 (HOP-92) | GI50 (IGROV-1) | GI50 (Malme-3M) | GI50 (NCI/ADR-RES) | GI50 (OVCAR-8) | GI50 (SK-MEL-2) | GI50 (SK-MEL-5) | GI50 (SK-OV-3) | GI50 (SNB-19) | GI50 (SNB-75) | GI50 (UACC-62) | GI50 (UO-31) | GI50 (MDA-N)
1 | C[N+]1(CCN=C=NC2CCCCC2)CCOCC1 | > 100 µM (inactive) | > 100 µM (inactive) | > 100 µM (inactive) | > 100 µM (inactive) | > 100 µM (inactive) | > 100 µM (inactive) | > 100 µM (inactive) | > 100 µM (inactive) | > 100 µM (inactive) | > 100 µM (inactive) | > 100 µM (inactive) | > 100 µM (inactive) | > 100 µM (inactive) | > 100 µM (inactive) | > 100 µM (inactive) | > 100 µM (inactive) | > 100 µM (inactive) | > 100 µM (inactive) | –
2 | Nc1ccc(Cc2c(N)[nH]c(=O)[nH]c2=O)cc1 | > 100 µM (inactive) | > 100 µM (inactive) | > 100 µM (inactive) | > 100 µM (inactive) | > 100 µM (inactive) | > 100 µM (inactive) | > 100 µM (inactive) | – | > 100 µM (inactive) | > 100 µM (inactive) | > 100 µM (inactive) | > 100 µM (inactive) | > 100 µM (inactive) | > 100 µM (inactive) | > 100 µM (inactive) | – | > 100 µM (inactive) | > 100 µM (inactive) | > 100 µM (inactive)
3 | CCOC(=O)CCC(NC(=O)Cc1ccc(Oc2nc3ccccc3nc2-c2ccccc2)cc1)C(=O)OCC (stereo not given) | 35.5 µM (inactive) | > 100 µM (inactive) | > 100 µM (inactive) | > 100 µM (inactive) | > 100 µM (inactive) | > 100 µM (inactive) | – | – | > 100 µM (inactive) | 70.8 µM (inactive) | – | > 100 µM (inactive) | 57.9 µM (inactive) | 58.6 µM (inactive) | 50.6 µM (inactive) | 37.8 µM (inactive) | > 100 µM (inactive) | 52.5 µM (inactive) | > 100 µM (inactive)
4 | O=C(C#Cc1ccccc1)C1=Cc2ccccc2OC1 | 2.4 µM (inactive) | 9.31 µM (inactive) | 2.17 µM (inactive) | 2.16 µM (inactive) | 1.92 µM (inactive) | 1.92 µM (inactive) | – | 2.38 µM (inactive) | 4.2 µM (inactive) | 2.79 µM (inactive) | 2.39 µM (inactive) | 3.94 µM (inactive) | 2.08 µM (inactive) | 15 µM (inactive) | 15 µM (inactive) | 6.14 µM (inactive) | 1.94 µM (inactive) | 2.06 µM (inactive) | –
5 | CC(=O)O[C@H]1C(=O)[C@@]2(C)[C@H]([C@H](OC(=O)c3ccoc3)[C@]3(O)C[C@H](OC(=O)[C@H](O)[C@@H](NC(=O)c4ccccc4)c4ccccc4)C(C)=C1C3(C)C)[C@]1(OC(C)=O)CO[C@@H]1C[C@@H]2O | 0.38 µM (active) | 0.115 µM (active) | 2.1 µM (inactive) | 0.615 µM (active) | 0.0515 µM (active) | 0.0186 µM (active) | > 12.5 µM (inactive) | 0.0962 µM (active) | 0.0316 µM (active) | > 10.9 µM (inactive) | 0.0798 µM (active) | 0.0448 µM (active) | 0.0467 µM (active) | 0.0578 µM (active) | 0.145 µM (active) | 0.141 µM (active) | 0.053 µM (active) | > 8.91 µM (inactive) | –
6 | CCCn1c(SC)nc(COC(=O)NC)c1COC(=O)NC | > 100 µM (inactive) | > 100 µM (inactive) | > 100 µM (inactive) | > 100 µM (inactive) | > 100 µM (inactive) | > 100 µM (inactive) | – | > 100 µM (inactive) | – | > 100 µM (inactive) | > 100 µM (inactive) | > 100 µM (inactive) | > 100 µM (inactive) | > 100 µM (inactive) | > 100 µM (inactive) | > 100 µM (inactive) | > 100 µM (inactive) | > 100 µM (inactive) | > 100 µM (inactive)
7 | O=C1Nc2ccccc2[C@]12C[C@H]2c1ccccn1 | > 100 µM (inactive) | > 100 µM (inactive) | > 100 µM (inactive) | > 100 µM (inactive) | > 100 µM (inactive) | > 100 µM (inactive) | > 100 µM (inactive) | > 100 µM (inactive) | > 100 µM (inactive) | > 100 µM (inactive) | – | > 100 µM (inactive) | > 100 µM (inactive) | > 100 µM (inactive) | > 100 µM (inactive) | – | > 100 µM (inactive) | > 100 µM (inactive) | > 100 µM (inactive)
8 | Cc1cc(C)nc(NS(=O)(=O)c2ccc(Nc3c4ccccc4nc4c(C(=O)NNCCO)cccc34)cc2)n1 | > 100 µM (inactive) | > 100 µM (inactive) | > 100 µM (inactive) | > 100 µM (inactive) | > 100 µM (inactive) | – | > 100 µM (inactive) | > 100 µM (inactive) | > 100 µM (inactive) | > 100 µM (inactive) | > 100 µM (inactive) | 58.6 µM (inactive) | > 100 µM (inactive) | > 100 µM (inactive) | > 100 µM (inactive) | – | 13.7 µM (inactive) | > 100 µM (inactive) | > 100 µM (inactive)
9 | O=C(/C=C1/Nc2ccc([N+](=O)[O-])cc2N/C1=C/C(=O)c1ccccc1)c1ccccc1 | 18.3 µM (inactive) | 36.3 µM (inactive) | 39.8 µM (inactive) | 18.5 µM (inactive) | 53.6 µM (inactive) | 20.7 µM (inactive) | – | 25.3 µM (inactive) | 40.8 µM (inactive) | 18.3 µM (inactive) | 16.8 µM (inactive) | 0.385 µM (active) | 38 µM (inactive) | 23 µM (inactive) | 21.6 µM (inactive) | 16.9 µM (inactive) | 12.6 µM (inactive) | 18.6 µM (inactive) | > 100 µM (inactive)
10 | CNC1=Nc2ccccc2C(=O)N2CSCC12 (stereo not given) | > 100 µM (inactive) | > 100 µM (inactive) | > 100 µM (inactive) | > 100 µM (inactive) | > 100 µM (inactive) | > 100 µM (inactive) | – | > 100 µM (inactive) | > 100 µM (inactive) | > 100 µM (inactive) | > 100 µM (inactive) | > 100 µM (inactive) | > 100 µM (inactive) | > 100 µM (inactive) | > 100 µM (inactive) | > 100 µM (inactive) | > 100 µM (inactive) | > 100 µM (inactive) | > 100 µM (inactive)
11 | c1c[nH]c(-c2cccc3nsnc23)c1 | > 100 µM (inactive) | 72.3 µM (inactive) | 71.9 µM (inactive) | > 100 µM (inactive) | 13.5 µM (inactive) | 59.7 µM (inactive) | – | 22.8 µM (inactive) | > 100 µM (inactive) | > 100 µM (inactive) | 78 µM (inactive) | > 100 µM (inactive) | > 100 µM (inactive) | > 100 µM (inactive) | > 100 µM (inactive) | 49.4 µM (inactive) | 71.9 µM (inactive) | 44.6 µM (inactive) | > 100 µM (inactive)
12 | O=c1oc2ccccc2n1CCCn1c(=O)oc2ccccc21 | > 100 µM (inactive) | – | 92.5 µM (inactive) | > 100 µM (inactive) | > 100 µM (inactive) | > 100 µM (inactive) | – | > 100 µM (inactive) | > 100 µM (inactive) | > 100 µM (inactive) | > 100 µM (inactive) | > 100 µM (inactive) | > 100 µM (inactive) | > 100 µM (inactive) | > 100 µM (inactive) | 44.5 µM (inactive) | > 100 µM (inactive) | – | –
13 | CC1CCC2(NC1)OC1CC3C4CC=C5CC(OC6OC(CO)C(OC7OC(C)C(O)C(O)C7O)C(O)C6OC6OC(C)C(O)C(O)C6O)CCC5(C)C4CCC3(C)C1C2C (stereo not given) | 1.99 µM (inactive) | 3.15 µM (inactive) | 3.91 µM (inactive) | 15.6 µM (inactive) | 8.63 µM (inactive) | 2.31 µM (inactive) | 3.69 µM (inactive) | 5.82 µM (inactive) | 2.46 µM (inactive) | – | 2.88 µM (inactive) | 3.63 µM (inactive) | 5.58 µM (inactive) | 7.18 µM (inactive) | 11.1 µM (inactive) | 2.5 µM (inactive) | 3.02 µM (inactive) | 7.45 µM (inactive) | 2.37 µM (inactive)
14 | Cc1ccc(N/C(=C(/C(Cl)=C(Cl)Cl)[N+](=O)[O-])n2nnc3ccccc32)cc1 | 20.8 µM (inactive) | 19.5 µM (inactive) | 21.4 µM (inactive) | 17.7 µM (inactive) | 15.1 µM (inactive) | 30 µM (inactive) | – | – | 16.1 µM (inactive) | 27.2 µM (inactive) | 18.8 µM (inactive) | 17.7 µM (inactive) | – | 17.1 µM (inactive) | 18.3 µM (inactive) | 18.8 µM (inactive) | – | 16.6 µM (inactive) | 18.9 µM (inactive)
15 | O=c1ssc(Cl)c1Nc1c(Cl)ssc1=O | 17.8 µM (inactive) | 21.7 µM (inactive) | > 40 µM (inactive) | 18.7 µM (inactive) | 11.3 µM (inactive) | 17.5 µM (inactive) | 20 µM (inactive) | 18.2 µM (inactive) | 17.9 µM (inactive) | 27.2 µM (inactive) | 21.5 µM (inactive) | 19.4 µM (inactive) | 17 µM (inactive) | 25.9 µM (inactive) | 25.7 µM (inactive) | 25.9 µM (inactive) | > 40.7 µM (inactive) | 14.4 µM (inactive) | –
16 | O=C(CCc1cccc(O)c1)NCCc1cccc(O)c1 | > 100 µM (inactive) | > 100 µM (inactive) | > 100 µM (inactive) | > 100 µM (inactive) | > 100 µM (inactive) | > 100 µM (inactive) | > 100 µM (inactive) | > 100 µM (inactive) | > 100 µM (inactive) | > 100 µM (inactive) | > 100 µM (inactive) | > 100 µM (inactive) | > 100 µM (inactive) | > 100 µM (inactive) | > 100 µM (inactive) | – | > 100 µM (inactive) | > 100 µM (inactive) | > 100 µM (inactive)

Source: ChEMBL document CHEMBL1201862, “PubChem BioAssay data set” (2004)
